Article PMC3750913 (BMC Microbiology, 2013)
Read-outs that look alike come from different tables or passages of the source.

Legend:
MV [1] = assay: Viral attachment assay, method 1 (host cell infection); format: cell-based, measles virus
RSV [2] = assay: as above; format: cell-based, respiratory syncytial virus
HCV [3] = assay: as above; format: cell-based, hepatitis C virus
HCMV [4] = assay: Viral inactivation assay; format: cell-based, human cytomegalovirus; settings: Human betaherpesvirus 5, read-out: inhibition of infection after pre-incubation of free virus with compound
DENV-2 [5] = assay: Viral cell-to-cell spread assay; format: cell-based, dengue virus type 2
MV [6] = assay: microbe, parasite or virus in culture; format: cell-based, measles virus; settings: for EC50: MV in CHO-SLAM cells, co-treatment with viral inoculum, read-out: Antiviral effect EC50
RSV [7] = assay: Viral penetration assay; format: cell-based, respiratory syncytial virus; settings: human respiratory syncytial virus, HEp-2, read-out: Window of antiviral effects: Penetration, inhibitory effect relative to DMSO control
HCV [8] = assay: Analysis of drug effects post viral entry; format: cell-based, hepatitis C virus
DENV-2 [9] = assay: Viral attachment assay, method 1 (host cell infection); format: cell-based, dengue virus type 2; settings: DENV-2, method 1, 4°C; Figure 4
RSV [10] = assay: Viral cell-to-cell spread assay; format: cell-based, respiratory syncytial virus
DENV-2 [11] = assay: Dose-response antiviral assay (immunohistochemical staining plaque assay); format: cell-based, dengue virus type 2; settings: DENV-2, Vero cells
HCV [12] = format: cell-based, hepatitis C virus; settings: Huh-7.5 cells
HCV [13] = assay: Viral penetration assay; format: cell-based, hepatitis C virus; settings: Hepatitis C virus, Huh7.5, read-out: Window of antiviral effects: Penetration, inhibitory effect relative to DMSO control
MV [14] = assay: Viral inactivation assay; format: cell-based, measles virus
HCMV [15] = assay: Viral attachment assay, method 2 (virus-specific cellular ELISA); format: cell-based, human cytomegalovirus; settings: HCMV MOI 5, ELISA, 4°C; highest inhibitory concentration of the compounds
RSV [16] = assay: as above; format: cell-based, respiratory syncytial virus; settings: RSV MOI 5, ELISA, 4°C; highest inhibitory concentration of the compounds
HCMV [17] = assay: Viral cell-to-cell spread assay; format: cell-based, human cytomegalovirus
MV [18] = assay: Viral cell-to-cell spread assay; format: cell-based, measles virus
MV [19] = assay: Viral penetration assay; format: cell-based, measles virus; settings: Measles morbillivirus, read-out: Window of antiviral effects: Penetration, inhibitory effect relative to DMSO control
DENV-2 [20] = assay: Viral attachment assay, method 2 (virus-specific cellular ELISA); format: cell-based, dengue virus type 2; settings: DENV-2 MOI 5, ELISA, 4°C; highest inhibitory concentration of the compounds
DENV-2 [21] = assay: Analysis of drug effects post viral entry; format: cell-based, dengue virus type 2; settings: DENV-2; Figure 6
[22] = in vivo; cited from earlier work
ADV-5 = assay: Dose-response antiviral assay (plaque assay); format: cell-based, human adenovirus type-5; settings: Human adenovirus sp.; ADV-5 in A549 cells, co-treatment with viral inoculum; read-out: Antiviral effect EC50
HCMV [23] = assay: Dose-response antiviral assay (plaque assay); format: cell-based, human cytomegalovirus; settings: for EC50: HCMV in HEL cells, co-treatment with viral inoculum, read-out: Antiviral effect EC50
MV [24] = assay: Viral attachment assay, method 2 (virus-specific cellular ELISA); format: cell-based, measles virus; settings: MV MOI 1, ELISA, 4°C; highest inhibitory concentration of the compounds
HCMV [25] = assay: Analysis of drug effects post viral entry; format: cell-based, human cytomegalovirus; settings: HCMV; Figure 6
RSV [26] = assay: Analysis of drug effects post viral entry; format: cell-based, respiratory syncytial virus; settings: RSV; Figure 6
DENV-2 [27] = assay: Viral inactivation assay; format: cell-based, dengue virus type 2; settings: Dengue virus
MV [28] = assay: Analysis of drug effects post viral entry; format: cell-based, measles virus

Question: Which results are given for O=C(O)C[C@@H]1C(=O)O[C@H]2[C@@H]3OC(=O)c4cc(O)c(O)c(O)c4-c4c(cc(O)c(O)c4O)C(=O)OC[C@H]2O[C@@H](OC(=O)c2cc(O)c(O)c(O)c2)[C@@H]3OC(=O)c2cc(O)c(O)c3c2[C@H]1[C@H](O)C(=O)O3 [CHLA, chebulagic acid]?
Answer: inhibition of entry (virus attachment) (MV [1]; MV, method 1, 4°C, Figure 4, PUG more effective than CHLA): 50 – 80%; inhibition at 90 µM (MV [1]; Measles morbillivirus, read-out: Window of antiviral effects: Attachment Method 1, inhibitory effect relative to DMSO control): 50 to 75%; inhibition of virus attachment (RSV [2]; RSV, method 1, 4°C, Figure 4): 90 – 100%; inhibition at 1 µM (RSV [2]; human respiratory syncytial virus, HEp-2, read-out: Window of antiviral effects: Attachment Method 1, inhibitory effect relative to DMSO control): > 75%; inhibition of virus attachment (HCV [3]; HCV, method 1, 4°C, Figure 4): 90 – 100%; inhibition at 50 µM (HCV [3]; Hepatitis C virus, Huh7.5, read-out: Window of antiviral effects: Attachment Method 1, inhibitory effect relative to DMSO control): > 75%; inhibition at 60 µM (HCMV [4]): ~100%; effect on viral plaque size (cell-to-cell spread) (DENV-2 [5]; DENV-2, Figure 7): unaffected and expanded further; inhibition at 25 µM (DENV-2 [5]; Dengue virus, DENV2, Vero, read-out: Window of antiviral effects: Cell-to-cell spread, inhibitory effect relative to DMSO control): < 25%; EC50 (MV [6]): 34.4 ± 4.35 µM; SI (selectivity index, CC50/EC50) (MV [6]; MV, CHO-SLAM cells): 10.22; EC50 (MV [6]; Measles morbillivirus): < 35 µM; inhibition at 1 µM (RSV [7]): 50 to 75%; protection, treatment post-infection (HCV [8]; HCV, Figure 6): 80 – 100%; inhibition at 50 µM (HCV [8]; Hepatitis C virus, Huh7.5, read-out: Window of antiviral effects: Post-infection, inhibitory effect relative to DMSO control): > 75%; inhibition of virus attachment (DENV-2 [9]): 90 – 100%; effect on viral plaque size (cell-to-cell spread) (RSV [10]; RSV, Figure 7): unaffected and expanded further; inhibition at 1 µM (RSV [10]; human respiratory syncytial virus, HEp-2, read-out: Window of antiviral effects: Cell-to-cell spread, inhibitory effect relative to DMSO control): < 25%; SI (selectivity index, CC50/EC50) (DENV-2 [11]): 12.18; SI (selectivity index, CC50/EC50) (HCV [12]): 19.54; inhibition at 50 µM (HCV [13]): > 75%; block of infection after pre-incubation of free virus with compound (MV [14]; MV, CHLA 90 μM, PUG 50 μM, Figure 3): 60 – 80%; inhibition at 90 µM (MV [14]; Measles morbillivirus, read-out: Window of antiviral effects: Free particle, inhibitory effect relative to DMSO control): 50 to 75%; Window of antiviral effects: Attachment Method 2, inhibitory effect relative to DMSO control (HCMV [15]): +++ (+++ > 75%); Window of antiviral effects: Attachment Method 2, inhibitory effect relative to DMSO control (RSV [16]): +++ (+++ > 75%); effect on viral plaque size (cell-to-cell spread) (HCMV [17]; HCMV, Figure 7): near initial size; inhibition at 60 µM (HCMV [17]; Human betaherpesvirus 5, HEL, read-out: Window of antiviral effects: Cell-to-cell spread, inhibitory effect relative to DMSO control): > 75%; effect on viral plaque size (cell-to-cell spread) (MV [18]; MV, Figure 7): near initial size; inhibition at 90 µM (MV [18]; Measles morbillivirus, read-out: Window of antiviral effects: Cell-to-cell spread, inhibitory effect relative to DMSO control): > 75%; inhibition at 90 µM (MV [19]): 50 to 75%; Window of antiviral effects: Attachment Method 2, inhibitory effect relative to DMSO control (DENV-2 [20]): +++ (+++ > 75%); protection, treatment post-infection (DENV-2 [21]): < 25%; in vivo toxicity [22]: minimal toxicity; EC50 (ADV-5): 198 ± 14.1 µM; EC50 (HCMV [23]): 25.5 ± 1.51 µM; SI (selectivity index, CC50/EC50) (HCMV [23]; HCMV, HEL cells): 12.01; EC50 (HCMV [23]; Human betaherpesvirus 5, HEL): < 35 µM; Window of antiviral effects: Attachment Method 2, inhibitory effect relative to DMSO control (MV [24]): ++ (++ 50–75%); protection, treatment post-infection (HCMV [25]): 80 – 100%; protection, treatment post-infection (RSV [26]): < 25%; inhibition at 25 µM (DENV-2 [27]; DENV2, Vero, read-out: Window of antiviral effects: Free particle, inhibitory effect relative to DMSO control): > 75%; inhibition at 25 µM (DENV-2 [27]; DENV2, read-out: inhibition of infection after pre-incubation of free virus with compound): ~100%; protection, treatment post-infection (MV [28]; MV, Figure 6): 80 – 100%; inhibition at 90 µM (MV [28]; Measles morbillivirus, read-out: Window of antiviral effects: Post-infection, inhibitory effect relative to DMSO control): > 75%
